We go through seven molecules from paper PMC3492761 (Journal of medicinal chemistry, 2012).

By EC50 is commonly meant the midpoint of the concentration-response curve.

For data set [1], the system named is A/Brisbane/10/2007 (H3N2). The following applies: read-out: EC50, cytopathic effect inhibition. (Protection from cytopathic effect is a common read-out in antiviral testing.)
In data set [2] the test system is A/WSN/33 (H1N1) influenza virus. The conditions noted are these: mouse, in vivo, po.
The conditions of data set [3]: male (rat, dog), human, microsomes, 1 h.

Take `CCC(CC)O[C@@H]1C=C(P(=O)(O)O)C[C@H](N)[C@H]1NC(C)=O` [3a, tamiphosphor]: the EC50 in data set [1] was > 10 µM.
`CCOP(=O)(OCC)C1=C[C@@H](OC(CC)CC)[C@H](NC(C)=O)[C@@H](N)C1` [3b, tamiphosphor diethyl ester]: the “protection of infected mice” value in data set [2] is recorded as “No significant protection”.
Consider `CCOP(=O)(O)C1=C[C@@H](OC(CC)CC)[C@H](NC(C)=O)[C@@H](N)C1` [3c, tamiphosphor monoethyl ester], for which, in data set [1], the EC50 is > 10 µM.
Turning to `CCC(CC)O[C@@H]1C=C(P(=O)(O)O)C[C@H](NC(=N)N)[C@H]1NC(C)=O` [4a, guanidino-tamiphosphor], in data set [1], the EC50 is > 10 µM.
Turning to `CCOP(=O)(O)C1=C[C@@H](OC(CC)CC)[C@H](NC(C)=O)[C@@H](NC(=N)N)C1` [4c, guanidino-tamiphosphor monoethyl ester], the EC50 in data set [1] was > 10 µM.
Take `Cc1ncc2n1-c1ccc(Cl)cc1C(c1ccccc1F)=NC2` [midazolam]: in data set [3], the metabolized was 65–100%.
The same measure, in the same setting: to `C[C@]12CC[C@H]3[C@@H](CCC4=CC(=O)CC[C@@]43C)[C@@H]1CC[C@@H]2O` [testosterone] belongs 65–100%.
